Test system: A549
Test: Antiproliferative activity against human A549 cells assessed as growth inhibition at 10 uM
Type: functional
Settings: read-out: GI

For `CN1C(=O)CNC(=O)[C@H](NC(=O)c2nc3ccccc3cc2O)CSSC[C@H]1C(=O)O`, the inhibition of growth at 10 µM was less than 30%.

Reference: ChEMBL document CHEMBL3632499, “Synthesis and Antiproliferative Activity Evaluation of the Disulfide-Containing Cyclic Peptide Thiochondrilline C and Derivatives” (J Nat Prod, 2015)
